Patent US20020004519A1, “METHOD FOR REDUCING CHLORIDE SECETION BY INTESTINAL EPITHLIAL CELLS IN SITU” (priority 1998, published 2002)

Assays:
T84 cells = assay: Electrogenic Cl- secretion (short circuit current, Isc) in confluent T84 monolayers; assay type: cell-based, human; details: for Inhibition of cAMP and Ca++ elicited Cl- secretion: comparison of compounds tested
[1] = test system: cAMP- and Ca++-sensitive basolateral K+ channels of T84 cells; assay: Basolateral K+ conductance in T84 monolayers permeabilized apically with amphotericin B; assay type: cell-based, human; details: for Time course of K+ transport after treatment with forskolin and carbachol: forskolin 10 μM (cAMP agonist), carbachol 100 μM (Ca++ agonist)
Experimental: Selective mebrane Permeabilization and Measurement of Potassium Conductance of the Basolateral Membrane. The basolateral potassium conductance was measured using the technique developed by Dawson and co-workers. A potassium gradient (mucosal to serosal) was first established across the monolayer using asymmetric mucosal and serosal buffers containing K^+ as the sole permeant ion. The addition of amphotericin B (20 μM) to the mucosal reservoir forms conductive pores in the apical membrane, and thus removes all resistance to transepithelial potassium movement across this membrane. Thus, under the conditions of the experiment, in which the monolayer is short circuited (i.e., voltage-clamped at zero potential) and the transepithehal potassium gradient is constant, the amphotericin-dependent Isc becomes a measure of the rate of the transepithelial potassium flux across basolateral membranes. Changes in short circuit current (Isc), then represent changes in basolateral K^+ conductances (gK). Isc and K^+ conductances were measured using calomel electrodes, 3M KCI-agar bridges, and a voltage clamp (University of Iowa, Iowa City). To generate a voltage-current channel relationships, currents were elicited by 1 sec test potentials from −80 to +80 in 10 mV increments in the asymmetrical high K^+ gluconate solution. Calculation of basolateral membrane K^+ permeability: Membrane permeabilities were calculated according to the formula:
^pK=(cm/s)=^JK(mM/cm^2·s)/Δ[K^+](mM/cm^3)
where Δ [K^+] is equal to the difference in K^+ concentration (135 mM) between the asymmetric apical and basolateral bathing solutions. Maximal Isc values were converted into K^+ fluxes by dividing by the Faraday constant F (96,500 coulombs/mol) as previously described (Huflejt et al., J. Clin. Invest. 93: 1900-1910 (1994)).
Basolateral K+ transport was examined in T84 monolayers permeabilized apically by pretreatment with amphotericin B. Apical and basolateral buffers contained K+ as the sole permeant ion. All studies were performed with a 135 mM basolaterally directed K+ gradient. This method has been utilized previously to examine both Cl− and K+ transport in T84 cells and HT29-Cl0.16E cells. Briefly, ion conductances in the luminal or basolateral membranes of confluent T84 cell monolayers can be assessed separately by selectively permeabilizing the apical or basolateral membrane using the ionophore amphotericin B. This artificially removes all electrical resistance to ion transport across the plasma membrane containing pores formed by amphotericin B. As a result, the intact contralateral plasma membrane becomes rate limiting for transepithelial ion transport. Agonist-dependent changes in ion conductances can be assessed directly either as transepithelial short circuit current (Isc) in the presence of established ion gradients, or as transepithelial conductance (G) in the presence of established transepithelial potentials.

[2] = test system: basolateral K+ channels of T84 cells; assay: 86Rb efflux from T84 monolayers as indicator of basolateral K+ channel activity; assay type: cell-based, human
Experimental: J. Physiol (Cell Physiol. 28):[…]-[…] (1990). […] One ml samples were obtained and replaced from the basolateral reservoir. […] Finally, the cell monolayer was rinsed, cut with its support from the polystyrene ring, and the residual cell-associated radioactivity was determined. Monolayers were maintained at 37° C. in room air throughout the study. ^86Rb was counted by scintillation counting and normalized to percent total uptake as previously described ([…], et al, Am. J. Physiol. (Cell Physiol. 28):[…]-[…] (1990).

[3] = test system: apical membrane Cl- channels of T84 cells; assay: 125I efflux from T84 monolayers as indicator of apical Cl- channel activity; assay type: cell-based, human
Experimental: J. Physiol. (Cell Physiol. 28):[…]-[…] (1990). […] After washing twice in fresh HBSS, 0.5 ml samples were obtained every two min from the apical reservoir and replaced with fresh HBSS. […] Finally, the cell monolayer was rinsed, cut with its support from the polystyrene ring, and the residual cell-associated radioactivity was determined. Monolayers were maintained at 37° C. in room air throughout the study. ^125I was counted by gamma counting and normalized to percent total uptake as previously described ([…], et al, Am. J. Physiol. (Cell Physiol 28):[…]-[…] (1990).

[4] = test system: basolateral NaK2Cl cotransporters of T84 cells; assay: Bumetanide-sensitive 86Rb uptake in T84 monolayers; assay type: cell-based, human
Experimental: Confluent monolayers on 5 cm^2 Transwell inserts were incubated for 30 minutes in HBSS at 37° C. […] Monolayers were cut from their inserts, placed into scintillation vials, and counted using standard methods.

[5] = test system: apical membrane Cl- channels of T84 cells; assay: Apical Cl- conductance in T84 monolayers permeabilized basolaterally with amphotericin B; assay type: cell-based, human; details: forskolin 10 μM; symmetrical Cl- 142 mM
rabbit colonic mucosa = assay: Ussing chamber studies using rabbit colonic mucosa; details: 30 μM; forskolin 10 μM
Experimental: 4 male, New Zealand rabbits (2.5 kg) were anesthetized by an intravenous injection of pentobarbital (0.5 ml/kg). A 15 cm length of distal colon was removed and opened longitudinally. […] The volume of fluid on each side of the mucosa was 7 ml. Potential difference and Isc were monitored continuously and registered every 10 minutes.

[6] = test system: cholera toxin-induced intestinal fluid secretion; assay type: in vivo, Balb/C mice
[7] = 33 μM during final 30 min of preincubation

Q: Which results are given for charybdotoxin?
A: Cl- secretory response (Isc as percentage of control) to the Ca++-dependent agonist carbachol (T84 cells): strongly inhibited; Cl- secretory response (Isc as percentage of control) to the cAMP mediated agonist VIP (T84 cells): minimal affects; Inhibition of the carbachol-induced Ca++ IK ([1]; carbachol first, pretreatment with charybdotoxin 100 nM): 50%; Effect on K+ transport induced by subsequent addition of forskolin ([1]; charybdotoxin 100 nM): no detectable effect

Q: With `CC(=O)N1CCN(c2ccc(OCC3COC(Cn4ccnc4)(c4ccc(Cl)cc4Cl)O3)cc2)CC1` (centres unmarked) [ketoconazole] as the molecule, how does the “Inhibition of cAMP and Ca++ elicited Cl- secretion” value (T84 cells) read?
A: Its value is “effective at inhibiting chloride secretion”.

Q: For `Clc1ccc(COC(Cn2ccnc2)c2ccc(Cl)cc2Cl)c(Cl)c1` (centres unmarked) [miconazole], which “Inhibition of cAMP and Ca++ elicited Cl- secretion” value (T84 cells) is on record?
A: The value was “effective at inhibiting chloride secretion”.

Q: How did the “Inhibition of cAMP and Ca++ elicited Cl- secretion” value (T84 cells) turn out when `Clc1ccc(COC(Cn2ccnc2)c2ccc(Cl)cc2Cl)cc1` (centres unmarked) [econazole] was run?
A: The value was “effective at inhibiting chloride secretion”.

Q: For `Clc1ccccc1C(c1ccccc1)(c1ccccc1)n1ccnc1` [clotrimazole], which “Cl- secretory response (Isc as percentage of control) to the Ca++-dependent agonist carbachol” value (T84 cells) is on record?
A: Its value is “inhibited”.

Q: What about the “Cl- secretory response (Isc as percentage of control) to the cAMP mediated agonist VIP” value (T84 cells) of the same molecule?
A: Its value is “inhibited”.

Q: What about the “Secretory response to agonists of sequential steps in the cAMP signalling cascade” value (T84 cells; 33 μM preincubation, 5 μM VIP, 10 μM forskolin or 3 mM 8Br-cAMP) of the same molecule?
A: The value was “inhibited”.

Q: And the “Cl- secretory response to Ca++-dependent agonists” value (T84 cells; 33 μM pretreatment, carbachol 100 μM, thapsigargin 5 μM or ionomycin 10 μM)?
A: Its value is “inhibited strongly”.

Q: And the IC50 (T84 cells; Homo sapiens, T84, read-out: IC50 for inhibiting the secretory response to E. Coli heat-stabile toxin)?
A: The IC50 was 15 µM.

Q: And the “Reversibility of inhibition of Cl- secretion” value (T84 cells; after 60 min recovery in the presence of 0.01 mg/ml bovine serum albumin, n=4)?
A: Its value is 96±2%.

Q: And the “Apparent potency of inhibition at a fixed time point by side of application” value (T84 cells; basolateral versus apical application)?
A: Its value is “greater when applied basolaterally than apically”.

Q: And the “Inhibition of cAMP and Ca++ elicited Cl- secretion” value (T84 cells)?
A: The value was “most potent inhibitor tested”.

Q: And the “Potentiation of the Cl- secretory responses to either agonist at low doses” value (T84 cells; low doses (=10^-7 or less), VIP or carbachol)?
A: Its value is 5-10%.

Q: What about the “86Rb loading of the cells” value [2, 7] of the same molecule?
A: Its value is “did not alter”.

Q: And the “Reduction of the rate constant for VIP-stimulated 86Rb efflux” value ([2]; 33 μM, VIP 5 μM)?
A: The value was 87%.

Q: And the “Baseline and Ca++ stimulated 86RB efflux” value ([2]; T84 cells in the presence of VIP or thapsigargin, compared to cells not treated, FIG. 2)?
A: Its value is “significantly inhibited”.

Q: What about the “Rate constant for VIP-stimulated 86Rb efflux” value ([2]; monolayers treated with clotrimazole 33 μM, VIP 5 μM, n=2 in triplicate, untreated 0.0465) of the same molecule?
A: Its value is 0.0062 % uptake/minute.

Q: And the “Rate constant for thapsigargin-stimulated 86Rb efflux” value ([2]; monolayers treated with clotrimazole 33 μM, thapsigargin 5 μM, n=2, untreated 0.048)?
A: The value was 0.011 % uptake/minute.

Q: What about the “125I loading of the cells” value [3, 7] of the same molecule?
A: The value was “did not alter”.

Q: And the “Time course of 125I efflux from monolayers treated with VIP” value ([3]; 33 μM pretreatment, VIP)?
A: Its value is “little or no effect”.

Q: And the “Rate constant for 125I efflux” value ([3]; monolayers treated with clotrimazole (33 μM), VIP, n=2 in duplicate, untreated 0.0645)?
A: The value was 0.0637 % uptake/minute.

Q: And the “Reduction of the total amount of 86Rb uptake” value ([4]; 33 μM for 30 min, VIP, mean±SEM, n=6)?
A: The value was 53.6±5.8%.

Q: And the “Effect on the fractional component of 86Rb uptake that was bumetanide-sensitive” value ([4]; 33 μM for 30 min, bumetanide 10 μM)?
A: Its value is “no effect”.

Q: What about the “Bumetanide-sensitive fraction of 86Rb uptake” value ([4]; 0.5 h, 33 µM) of the same molecule?
A: Its value is 88+3.2 % total uptake.

Q: And the “Time course of K+ transport after treatment with forskolin and carbachol” value [1]?
A: The value was “significantly inhibited”.

Q: What about the “Forskolin- or thapsigargin-stimulated Cl- conductances” value [5] of the same molecule?
A: Its value is “no detectable effect”.

Q: What about the “Time course of forskolin induced Isc” value (rabbit colonic mucosa) of the same molecule?
A: The value was “inhibited strongly”.

Q: And the “Reduction of intestinal fluid secretion induced by cholera toxin” value ([6]; 5 hours)?
A: Its value is 86%.

Q: What about the “Intestinal secretion in the absence of cholera toxin” value ([6]; mouse, in vivo) of the same molecule?
A: Its value is “no effect”.

Q: Which results are given for `[Ba+2].[Cl-].[Cl-]` [BaCl2]?
A: Cl- secretory response (Isc as percentage of control) to the Ca++-dependent agonist carbachol (T84 cells): no apparent affect; Cl- secretory response (Isc as percentage of control) to the cAMP mediated agonist VIP (T84 cells): strongly inhibited; Effect on K+ transport induced by subsequent addition of carbachol ([1]; carbachol 100 μM, same monolayers, BaCl2 3 mM): no detectable effect; Inhibition of the cAMP-sensitive IK elicited by forskolin ([1]; forskolin 10 μM, BaCl2 3 mM in basolateral reservoirs): greater than 70%

Q: How did the “Inhibition of cAMP and Ca++ elicited Cl- secretion” value (T84 cells) turn out when `OC(c1ccccc1)(c1ccccc1)c1ccccc1Cl` [2-chlorophenyl-bis-phenyl methanol] was run?
A: The value was “effective at inhibiting chloride secretion”.

Q: And the “Time course of K+ transport after treatment with forskolin and carbachol” value [1]?
A: Its value is “Nearly identical results”.
